Legend:
Test in all cases: area under the viability dose-response curve (AUC) (AUC (arbitrary units, max 500 = no viability loss)); higher = less sensitive (higher viability)
Conditions in all cases: exposure time: 120 h; concentration range: 0.1 nM - 10 µM, 6 doses
17E = tested on: 17E (embryonal-type hepatoblastoma organoid)
Method: (§1)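 Patient-derived hepatoblastoma tumor organoids (about 50 organoids per well, 384-well plates, medium with 5% BME) were treated with the PMC pediatric cancer drug library. Each drug was tested in duplicate at 6 concentrations (0.1 nM to 10 µM, 10-fold steps).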

135F2 = tested on: 135F2 (fetal-II hepatoblastoma organoid with high liver markers)
Method: as §1

3E = tested on: 3E (embryonal-type hepatoblastoma organoid)
Method: as §1

27F1 = tested on: 27F1 (fetal-I hepatoblastoma organoid with intermediate liver markers)
Method: as §1

13E = tested on: 13E (embryonal-type hepatoblastoma organoid)
Method: as §1

22E = tested on: 22E (embryonal-type hepatoblastoma organoid)
Method: as §1

96F1 = tested on: 96F1 (fetal-I hepatoblastoma organoid with intermediate liver markers)
Method: as §1

13F2 = tested on: 13F2 (fetal-II hepatoblastoma organoid with high liver markers)
Method: as §1

17F1 = tested on: 17F1 (fetal-I hepatoblastoma organoid with intermediate liver markers)
Method: as §1

8F1 = tested on: 8F1 (fetal-I hepatoblastoma organoid with intermediate liver markers)
Method: as §1

10F2 = tested on: 10F2 (fetal-II hepatoblastoma organoid with high liver markers)
Method: as §1

| SMILES | area under the viability dose-response curve (17E) | area under the viability dose-response curve (135F2) | area under the viability dose-response curve (3E) | area under the viability dose-response curve (27F1) | area under the viability dose-response curve (13E) | area under the viability dose-response curve (22E) | area under the viability dose-response curve (96F1) | area under the viability dose-response curve (13F2) | area under the viability dose-response curve (17F1) | area under the viability dose-response curve (8F1) | area under the viability dose-response curve (10F2) |
| --- | --- | --- | --- | --- | --- | --- | --- | --- | --- | --- | --- |
| CNC(=O)c1cccc(-c2ccc3c(N4CCOC[C@@H]4C)nc(N4CCOC[C@@H]4C)nc3n2)c1 [Vistusertib] | 392 | 407 | 376 | 407 | 409 | 426 | 460 | 342 | 498 | 470 | 324 |
| S=P(N1CC1)(N1CC1)N1CC1 [ThioTEPA] | 443 | 440 | 400 | 472 | 483 | 474 | 461 | 433 | 488 | 478 | 394 |
| Oc1nc(-c2ccc(C(F)(F)F)cc2)nc2c1CSCC2 [XAV-939] | > 500 | 486 | 496 | > 500 | 486 | 491 | > 500 | 477 | > 500 | 490 | 456 |
| COc1cc2nccc(Oc3ccc(NC(=O)NC4CC4)c(Cl)c3)c2cc1C(N)=O [Lenvatinib] | 434 | 469 | 475 | 445 | 468 | 472 | 474 | 445 | > 500 | 461 | 419 |
| Cc1c2c(nn1C)CSCc1cc(n(C)n1)CSc1cc(c3ccccc3c1)OCCCc1c(C(=O)O)n(C)c3c-2c(Cl)ccc13 [AZD5991] | 370 | 379 | 310 | 473 | 403 | 400 | > 500 | 277 | 482 | 484 | 190 |
| Cc1nc(Nc2ncc(C(=O)Nc3c(C)cccc3Cl)s2)cc(N2CCN(CCO)CC2)n1 [Dasatinib] | 463 | 458 | 315 | 488 | 397 | 461 | 479 | 379 | 488 | 473 | 473 |

— the supplement of paper PMC11579375
